Laboratory results from PubChem BioAssay (NCI).
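Five compound concentrations were applied to cells in 96-well plates for 48 hours; endpoints were derived by simple linear interpolation of the resulting dose-response curve. Here, GI50 denotes the concentration required for 50% inhibition of growth. Definition used: TGI = concentration required for complete inhibition of growth.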

Legend:
Assay in all cases: NCI tumour cell line growth inhibition, 48 h
[1] = system: NCI/ADR-RES ovarian
[2] = system: OVCAR-5 ovarian
[3] = system: SNB-75 CNS
[4] = system: HS 578T breast
[5] = system: UACC-62 melanoma
[6] = system: HCT-15 colon
[7] = system: COLO 205 colon
[8] = system: RPMI-8226 leukemia
[9] = system: SK-MEL-28 melanoma
[10] = system: HL-60(TB) leukemia

| Compound | TGI [1] [µM] | TGI [2] [µM] | TGI [3] [µM] | TGI [4] [µM] | TGI [5] [µM] | TGI [6] [µM] | TGI [7] [µM] | TGI [8] [µM] | TGI [9] [µM] | TGI [10] [µM] | GI50 [1] [nM] | GI50 [2] [µM] | GI50 [3] [µM] | GI50 [4] [nM] | GI50 [5] [µM] | GI50 [6] [nM] | GI50 [7] [µM] | GI50 [9] [µM] | GI50 [10] [nM] | GI50 [8] [µM] |
| --- | --- | --- | --- | --- | --- | --- | --- | --- | --- | --- | --- | --- | --- | --- | --- | --- | --- | --- | --- | --- |
| COC(=O)C1=CO[C@@H](OC2OC(CO)C(O)C(O)C2O)[C@@H]2[C@H](C)[C@@H](O)[C@@H](O)[C@]12O (stereo not given in full) | > 100 | > 100 | > 100 | > 100 | > 100 | > 100 | > 100 | > 100 | > 100 | > 100 |  |  |  |  |  |  |  |  |  |  |
| COc1cc2c(c(OC)c1OC)C(=O)c1c-2n(CCCN=[N+]=[N-])c(=O)c2cc([N+](=O)[O-])ccc12 | > 100 | > 100 | 54.9 | > 100 | > 100 | > 100 | > 100 |  | > 100 | > 100 | 53000 | > 100 | 19.4 | 25300 | 39.7 | > 100000 | > 100 | > 100 | > 100000 |  |
| O=C1Nc2ccc(CN3CCOC3=O)cc2/C1=C/c1cc(CN2CCOCC2)c[nH]1 | > 100 | > 100 | > 100 | > 100 | > 100 | > 100 | > 100 | 53.7 | > 100 | > 80.7 | 34600 | > 100 | 52.8 | > 69800 | 34.4 | 29400 | 38.6 | 58 | 25100 | 19.2 |
| CCOC(=O)C(O)Cc1cnc2ccccc2n1 (stereo not given) | > 100 | > 100 | > 100 | > 100 | > 100 | > 100 | > 100 | > 100 | > 100 |  |  |  |  |  |  |  |  |  |  |  |
| CCCC(CCC)Oc1ccc(CCCC2=C(O)c3ccccc3C(=O)C2=O)cc1 | 22.5 | 25.8 | 26.3 | 37.4 | 17 | 15 | 32.3 | 7.49 | 21.7 | 6.27 | 5360 | 11.8 | 11.3 | 11700 | 3.16 | 3760 | 6.7 | 10.1 | 2680 | 2.9 |
| O=C1c2ccccc2C(=O)c2sc(Nc3ccc(Cl)cc3)nc21 | 5.52 | 7.37 | 12.7 | 14.1 | 4.05 | 3.8 | 17.7 | 4.73 | 3.36 | 1.05 | 2100 |  |  | 2920 |  |  |  |  |  |  |
| Cn1ccc2c3c(=O)cc[nH]c3ccc21 | > 100 | > 100 | > 100 | > 100 | > 100 | > 100 | > 100 | > 100 | > 100 | > 100 | > 100000 | > 100 | > 100 | 20200 | > 100 | > 100000 | > 100 | 12.7 | > 100000 | > 100 |
| c1ccc2c(-c3cnn4cc(-c5ccc(N6CCNCC6)cc5)cnc34)ccnc2c1 | 3.42 | 2.24 | 2.12 | 2.93 | 2.78 | 1.45 | 2.81 | 0.931 | 0.35 | 0.969 | 1720 | 0.806 | 0.441 | 1250 | 1.41 | 325 | 1.42 | 0.182 | 461 | 0.327 |
| Oc1cc2c(cc1C(c1ccc3c(c1)OCO3)N1CCN(C(c3ccc4c(c3)OCO4)c3cc4c(cc3O)OCO4)CC1)OCO2 (stereo not given) | 55.4 | 32.6 | 13.7 | 30.5 | 27.5 | 20.3 | 90.8 |  | 8.46 | > 100 |  |  |  |  |  |  |  |  |  |  |
| O=C(c1ccccc1)c1ccc(O)c2ncccc12 | 6.03 | 22.3 | 90.7 | 72 | 10.6 | 25.9 | 95.7 | 39.1 | > 100 | 8.82 | 428 | 4.87 | 15 | 5080 | 2.34 | 1660 | 23.9 | 14.6 | 2090 | 4.25 |
| CNC(C)[C@H]1CCC2C3CCC4C[C@@H](N(C)C(=O)c5ccccc5)CC[C@]4(C)C3CC[C@@]21C (stereo not given in full) | 15.5 | 14.8 | 5.12 | 3.94 | 2.64 | 2.19 | 2.52 | 3.3 | 2.9 | 4.28 | 2570 | 2.4 | 1.97 | 1340 | 1.02 | 407 | 1.15 | 1.36 | 1580 | 0.426 |
| COc1ccc(C2CC(c3cccc(OC)c3)=NN2C(=O)c2cc(OC)c(OC)c(OC)c2)cc1 (stereo not given) | > 21.1 | > 100 | > 100 | 5.37 | > 100 | > 100 | 5.53 | 4.35 | > 100 |  | 1550 | > 21.2 | 0.624 | 1210 | 1.1 | 1070 | 1.19 | 12.5 | 609 | 1.05 |
| Cc1[nH]c(=O)nc(N/N=C/c2ccc(Cl)cc2)c1C(=O)Nc1ccc(Cl)cc1 | > 100 | > 100 | 14.6 | > 100 | > 100 | > 100 | > 88.1 | > 80.2 | > 86.1 | > 100 |  |  |  |  |  |  |  |  |  |  |
| O=C(O)c1cc2cc(O)ccc2[nH]1 | > 100 | > 100 | > 100 | > 100 | > 100 | > 100 | > 100 | > 100 | > 100 | > 100 | > 100000 | > 100 | > 100 | > 100000 | > 100 | > 100000 | > 100 | > 100 | > 100000 | > 100 |
| COc1ccc(C2SCC(=O)N2NC(=O)C(O)c2ccccc2)cc1 (stereo not given) | > 100 | > 100 | > 100 | > 100 | > 100 | > 100 | > 100 | > 100 | > 100 | > 100 | > 100000 | > 100 | 80.9 | > 100000 | > 100 | > 100000 | > 100 | > 100 | > 100000 | 61.3 |
| CCOC(=O)Nc1ccc(C(=O)/C=C/c2ccccc2)cc1 | 65.8 | 90.5 | > 100 | 86 | > 100 | > 100 | 47.6 | 22.5 | > 100 | > 100 | 24200 | 28.9 | 31.6 | 30900 | 20.1 | 27200 | 20.3 | 59 | 31400 | 3.76 |
| CC(=O)[O][Hg][CH2]C1(C)COC(C)([CH2][Hg][O]C(C)=O)CO1 (stereo not given) | 46 | > 63.8 | 34 | 16 | 9.26 | 0.9 | 3.15 | 8.29 | 3.06 | 5.94 | 19100 | > 49.2 | 17.7 | 2610 | 4.94 | 432 | 1.47 | 1.64 | 2890 | 1.17 |
| CCCCCCCC(=O)NS(=O)(=O)c1ccccc1 | > 100 |  | > 100 | > 100 | > 100 | > 100 | > 100 | > 100 | > 100 | > 100 |  |  |  |  |  |  |  |  |  |  |
| Cc1ccc(S(=O)(=O)NNC(C[N+](=O)[O-])c2ccccc2)cc1 (stereo not given) | > 100 | > 100 | 41 | > 100 | 85.3 | 39.5 | 30.8 | > 100 |  | 21.9 |  |  |  |  |  |  |  |  |  |  |
| CNC1=CC(=O)C2=C(C1=O)C1C3=C(C(=O)C(Br)=C(OC)C3=O)C2c2ccccc21 (stereo not given) | 8.18 | 8.63 | 18.2 | 22.1 | 3.89 | 10.5 | 22 | > 50 | > 50 |  | 1550 | 2.15 | 5.69 | 2720 | 1.47 | 2060 | 9.89 | 2.34 |  | 2.27 |
| Oc1c(Cl)cc(CN(Cc2cc(Cl)c(O)c(Cl)c2)C2CCCCC2)cc1Cl | > 100 | > 100 | > 100 | > 100 | > 100 | > 100 | > 100 | > 100 | > 100 |  |  |  |  |  |  |  |  |  |  |  |
| Cc1ccc(N(/C=C/C(=O)C(F)(F)F)CC(=O)c2ccc(Cl)c(Cl)c2)cc1 | 13.4 | 20.6 | 16.4 | 17.1 | 19 | 14.5 | 21.6 | 27 | 23.2 |  | 2760 | 4.7 | 1.67 | 2350 | 5.57 | 3640 | 10 | 11.2 |  | 10.8 |
